In patent US12479847B2 (DANA-FARBER CANCER INSTITUTE, INC., priority 2019, dated 2025):

Experiments:
Assay in all cases: KINOMEscan (ScanMAX) kinase profiling
Format in all cases: binding
panel of 468 kinases [1] = target: T1, panel of 468 kinases (Homo sapiens, UniProt O14965); conditions: AURKA; 1 μM; read-out: % control
T1 construct: purchased KINOMEscan (ScanMAX) service
T1 sequence (O14965 1-403): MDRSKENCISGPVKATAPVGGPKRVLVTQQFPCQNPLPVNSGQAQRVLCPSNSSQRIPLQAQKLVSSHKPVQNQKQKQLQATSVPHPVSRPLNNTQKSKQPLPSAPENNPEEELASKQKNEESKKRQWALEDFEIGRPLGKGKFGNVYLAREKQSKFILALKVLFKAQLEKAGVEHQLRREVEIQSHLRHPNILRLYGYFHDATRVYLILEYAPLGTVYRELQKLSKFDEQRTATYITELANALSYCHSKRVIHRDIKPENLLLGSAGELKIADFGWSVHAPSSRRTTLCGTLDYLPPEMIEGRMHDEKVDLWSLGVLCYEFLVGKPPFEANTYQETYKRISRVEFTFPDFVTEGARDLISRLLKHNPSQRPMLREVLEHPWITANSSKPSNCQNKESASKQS

panel of 468 kinases [2] = target: T2, panel of 468 kinases (Homo sapiens, UniProt O95819); conditions: MAP4K4; 1 μM; read-out: % control
T2 construct: purchased KINOMEscan (ScanMAX) service

panel of 468 kinases [3] = target: T3, panel of 468 kinases (Homo sapiens, UniProt P21860); conditions: ERBB3; 1 μM; read-out: % control
T3 construct: purchased KINOMEscan (ScanMAX) service

panel of 468 kinases [4] = target: T4, panel of 468 kinases (Homo sapiens, UniProt P42336, C420R); conditions: PIK3CA(C420R); 1 μM; read-out: % control
T4 construct: purchased KINOMEscan (ScanMAX) service

panel of 468 kinases [5] = target: T5, panel of 468 kinases (Homo sapiens, UniProt P49674); conditions: CSNK1E; 1 μM; read-out: % control
T5 construct: purchased KINOMEscan (ScanMAX) service

panel of 468 kinases [6] = target: T6, panel of 468 kinases (Homo sapiens, UniProt P50613); conditions: CDK7; 1 μM; read-out: % control
T6 construct: purchased KINOMEscan (ScanMAX) service

panel of 468 kinases [7] = target: T7, panel of 468 kinases (Homo sapiens, UniProt Q16539); conditions: p38-alpha; 1 μM; read-out: % control
T7 construct: purchased KINOMEscan (ScanMAX) service

panel of 468 kinases [8] = target: T8, panel of 468 kinases (Homo sapiens, UniProt Q9UEE5); conditions: DRAK1; 1 μM; read-out: % control
T8 construct: purchased KINOMEscan (ScanMAX) service
T8 sequence (Q9UEE5 1-414): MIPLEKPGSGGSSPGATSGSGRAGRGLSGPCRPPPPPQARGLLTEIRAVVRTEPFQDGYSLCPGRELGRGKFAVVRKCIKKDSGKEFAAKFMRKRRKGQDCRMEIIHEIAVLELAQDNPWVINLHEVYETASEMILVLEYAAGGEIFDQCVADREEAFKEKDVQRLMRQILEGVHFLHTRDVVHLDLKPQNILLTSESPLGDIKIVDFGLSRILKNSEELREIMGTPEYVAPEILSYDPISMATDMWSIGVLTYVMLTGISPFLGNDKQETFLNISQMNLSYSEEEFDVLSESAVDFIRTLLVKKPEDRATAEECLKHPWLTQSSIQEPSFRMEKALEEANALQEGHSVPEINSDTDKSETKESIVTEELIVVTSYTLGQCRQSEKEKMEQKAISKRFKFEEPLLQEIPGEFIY

panel of 468 kinases [9] = target: T9, panel of 468 kinases (Homo sapiens, UniProt Q9UL54); conditions: TAOK2; 1 μM; read-out: % control
T9 construct: purchased KINOMEscan (ScanMAX) service
T9 sequence (Q9UL54 1-1235): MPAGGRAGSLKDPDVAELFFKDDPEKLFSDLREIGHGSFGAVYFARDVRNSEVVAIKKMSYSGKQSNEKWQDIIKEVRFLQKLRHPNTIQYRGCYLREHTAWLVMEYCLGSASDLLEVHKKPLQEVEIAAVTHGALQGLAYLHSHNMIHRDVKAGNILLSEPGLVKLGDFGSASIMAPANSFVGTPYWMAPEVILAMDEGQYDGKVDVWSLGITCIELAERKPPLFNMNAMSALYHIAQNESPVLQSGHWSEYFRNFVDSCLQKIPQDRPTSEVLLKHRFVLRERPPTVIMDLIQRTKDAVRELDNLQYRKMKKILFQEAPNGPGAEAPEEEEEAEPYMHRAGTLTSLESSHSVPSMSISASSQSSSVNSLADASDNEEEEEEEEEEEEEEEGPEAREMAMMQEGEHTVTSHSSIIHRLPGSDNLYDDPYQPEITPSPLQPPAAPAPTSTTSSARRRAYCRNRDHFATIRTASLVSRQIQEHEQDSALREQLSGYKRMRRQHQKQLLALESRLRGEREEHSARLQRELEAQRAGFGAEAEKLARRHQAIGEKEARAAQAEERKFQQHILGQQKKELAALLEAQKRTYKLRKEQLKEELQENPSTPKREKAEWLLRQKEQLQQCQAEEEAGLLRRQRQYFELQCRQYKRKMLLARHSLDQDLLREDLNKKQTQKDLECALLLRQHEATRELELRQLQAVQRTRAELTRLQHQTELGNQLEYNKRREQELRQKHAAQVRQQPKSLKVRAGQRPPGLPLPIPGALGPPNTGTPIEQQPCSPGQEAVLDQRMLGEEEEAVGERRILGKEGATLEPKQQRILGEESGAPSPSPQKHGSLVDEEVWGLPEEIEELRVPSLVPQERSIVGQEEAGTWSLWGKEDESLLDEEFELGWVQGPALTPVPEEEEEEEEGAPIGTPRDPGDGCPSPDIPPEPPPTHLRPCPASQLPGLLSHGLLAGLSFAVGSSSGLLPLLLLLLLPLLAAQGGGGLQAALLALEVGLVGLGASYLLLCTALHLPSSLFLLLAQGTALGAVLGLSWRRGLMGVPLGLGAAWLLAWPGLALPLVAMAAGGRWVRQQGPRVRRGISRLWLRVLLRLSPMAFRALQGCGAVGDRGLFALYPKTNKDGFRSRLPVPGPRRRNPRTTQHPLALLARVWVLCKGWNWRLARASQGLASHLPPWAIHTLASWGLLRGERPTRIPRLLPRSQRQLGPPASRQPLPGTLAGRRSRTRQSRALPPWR

T6 sequence (P50613 whole entry): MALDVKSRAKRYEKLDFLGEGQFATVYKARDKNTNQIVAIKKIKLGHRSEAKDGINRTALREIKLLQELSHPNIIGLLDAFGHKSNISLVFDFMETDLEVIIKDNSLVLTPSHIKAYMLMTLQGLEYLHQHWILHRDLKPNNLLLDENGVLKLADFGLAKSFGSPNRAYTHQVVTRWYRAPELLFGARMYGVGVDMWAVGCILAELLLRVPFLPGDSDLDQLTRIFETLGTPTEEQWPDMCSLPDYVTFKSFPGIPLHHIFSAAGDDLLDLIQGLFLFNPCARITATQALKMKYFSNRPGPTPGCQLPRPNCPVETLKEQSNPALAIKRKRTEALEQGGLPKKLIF
T4 sequence (P42336 whole entry C420R): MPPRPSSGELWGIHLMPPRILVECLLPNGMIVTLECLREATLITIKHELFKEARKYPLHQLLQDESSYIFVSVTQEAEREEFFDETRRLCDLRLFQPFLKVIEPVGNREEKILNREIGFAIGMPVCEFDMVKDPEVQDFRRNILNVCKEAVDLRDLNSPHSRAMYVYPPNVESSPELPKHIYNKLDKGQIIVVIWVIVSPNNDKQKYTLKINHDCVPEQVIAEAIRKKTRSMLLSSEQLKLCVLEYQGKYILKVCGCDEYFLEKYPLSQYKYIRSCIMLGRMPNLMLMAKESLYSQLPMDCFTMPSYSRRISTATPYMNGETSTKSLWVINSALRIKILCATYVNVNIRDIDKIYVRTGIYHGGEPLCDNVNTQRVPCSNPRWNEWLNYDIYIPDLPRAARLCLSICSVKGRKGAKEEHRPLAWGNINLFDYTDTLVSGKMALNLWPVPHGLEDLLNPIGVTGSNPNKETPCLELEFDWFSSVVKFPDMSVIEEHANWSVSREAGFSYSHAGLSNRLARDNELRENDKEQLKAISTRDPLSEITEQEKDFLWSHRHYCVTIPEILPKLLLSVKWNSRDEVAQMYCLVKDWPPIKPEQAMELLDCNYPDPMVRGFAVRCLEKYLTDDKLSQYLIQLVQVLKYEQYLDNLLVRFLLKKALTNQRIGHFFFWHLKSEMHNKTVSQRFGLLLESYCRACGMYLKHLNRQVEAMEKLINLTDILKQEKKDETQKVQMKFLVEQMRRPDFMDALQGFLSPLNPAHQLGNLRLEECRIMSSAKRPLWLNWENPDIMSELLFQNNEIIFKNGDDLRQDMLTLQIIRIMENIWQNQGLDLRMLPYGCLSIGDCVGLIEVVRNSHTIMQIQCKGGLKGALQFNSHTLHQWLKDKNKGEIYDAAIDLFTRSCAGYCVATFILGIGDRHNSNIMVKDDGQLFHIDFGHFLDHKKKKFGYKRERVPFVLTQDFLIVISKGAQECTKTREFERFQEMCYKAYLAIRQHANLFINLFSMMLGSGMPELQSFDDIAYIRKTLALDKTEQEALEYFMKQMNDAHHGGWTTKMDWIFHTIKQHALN
T5 sequence (P49674 whole entry): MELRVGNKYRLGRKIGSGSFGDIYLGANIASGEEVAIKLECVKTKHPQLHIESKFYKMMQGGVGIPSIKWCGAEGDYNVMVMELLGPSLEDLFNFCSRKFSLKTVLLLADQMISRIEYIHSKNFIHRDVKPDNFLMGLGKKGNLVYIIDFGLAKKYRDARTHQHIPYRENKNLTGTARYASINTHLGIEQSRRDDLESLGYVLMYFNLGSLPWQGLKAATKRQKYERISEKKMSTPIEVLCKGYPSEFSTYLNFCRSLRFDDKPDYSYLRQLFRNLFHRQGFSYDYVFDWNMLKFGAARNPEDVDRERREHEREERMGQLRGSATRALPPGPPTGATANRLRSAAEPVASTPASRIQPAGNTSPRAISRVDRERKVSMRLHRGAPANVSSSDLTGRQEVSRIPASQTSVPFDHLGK
T3 sequence (P21860 20-1342): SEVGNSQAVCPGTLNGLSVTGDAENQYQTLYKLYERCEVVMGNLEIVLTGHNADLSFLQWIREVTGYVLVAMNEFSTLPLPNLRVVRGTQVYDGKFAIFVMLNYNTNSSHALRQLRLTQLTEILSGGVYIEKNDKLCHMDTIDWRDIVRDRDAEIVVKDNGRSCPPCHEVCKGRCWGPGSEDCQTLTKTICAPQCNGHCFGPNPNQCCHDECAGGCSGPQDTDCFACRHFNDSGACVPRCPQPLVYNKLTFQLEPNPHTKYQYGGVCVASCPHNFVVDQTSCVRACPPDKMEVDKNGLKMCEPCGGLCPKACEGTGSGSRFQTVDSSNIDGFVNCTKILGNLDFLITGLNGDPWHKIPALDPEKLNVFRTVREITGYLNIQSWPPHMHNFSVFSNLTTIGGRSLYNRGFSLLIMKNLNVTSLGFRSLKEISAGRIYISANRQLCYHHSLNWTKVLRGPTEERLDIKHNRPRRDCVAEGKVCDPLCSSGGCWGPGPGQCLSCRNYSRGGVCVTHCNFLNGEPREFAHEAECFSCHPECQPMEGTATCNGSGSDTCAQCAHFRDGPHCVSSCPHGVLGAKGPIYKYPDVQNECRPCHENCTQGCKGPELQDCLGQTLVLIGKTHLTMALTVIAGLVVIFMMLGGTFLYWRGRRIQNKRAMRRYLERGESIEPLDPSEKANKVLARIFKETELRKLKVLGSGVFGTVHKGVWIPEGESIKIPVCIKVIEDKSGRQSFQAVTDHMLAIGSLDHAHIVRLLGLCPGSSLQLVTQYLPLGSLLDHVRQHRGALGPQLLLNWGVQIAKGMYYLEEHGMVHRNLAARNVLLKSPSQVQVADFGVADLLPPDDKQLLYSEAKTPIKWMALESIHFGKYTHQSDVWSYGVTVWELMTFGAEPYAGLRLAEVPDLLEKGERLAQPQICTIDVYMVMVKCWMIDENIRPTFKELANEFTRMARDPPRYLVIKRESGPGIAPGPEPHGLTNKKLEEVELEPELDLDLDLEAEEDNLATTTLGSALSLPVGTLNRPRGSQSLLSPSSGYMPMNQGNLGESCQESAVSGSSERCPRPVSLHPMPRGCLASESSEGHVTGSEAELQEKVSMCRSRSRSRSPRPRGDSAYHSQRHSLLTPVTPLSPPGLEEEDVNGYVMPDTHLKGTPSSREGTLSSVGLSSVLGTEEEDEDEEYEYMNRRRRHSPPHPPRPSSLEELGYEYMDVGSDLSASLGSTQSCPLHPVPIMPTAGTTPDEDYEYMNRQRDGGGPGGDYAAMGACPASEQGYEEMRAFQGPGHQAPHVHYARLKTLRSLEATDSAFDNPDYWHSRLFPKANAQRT
T7 sequence (Q16539 whole entry): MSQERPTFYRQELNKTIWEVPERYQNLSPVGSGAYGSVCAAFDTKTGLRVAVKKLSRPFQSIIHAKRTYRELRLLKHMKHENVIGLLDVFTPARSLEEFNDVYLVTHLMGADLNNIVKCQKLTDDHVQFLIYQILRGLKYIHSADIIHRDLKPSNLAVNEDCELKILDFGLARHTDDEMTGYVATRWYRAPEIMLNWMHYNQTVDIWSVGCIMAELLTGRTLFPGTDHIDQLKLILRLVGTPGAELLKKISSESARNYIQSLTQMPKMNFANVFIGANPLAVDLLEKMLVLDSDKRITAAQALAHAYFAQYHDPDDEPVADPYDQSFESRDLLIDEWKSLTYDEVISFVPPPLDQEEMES
T2 sequence (O95819 whole entry): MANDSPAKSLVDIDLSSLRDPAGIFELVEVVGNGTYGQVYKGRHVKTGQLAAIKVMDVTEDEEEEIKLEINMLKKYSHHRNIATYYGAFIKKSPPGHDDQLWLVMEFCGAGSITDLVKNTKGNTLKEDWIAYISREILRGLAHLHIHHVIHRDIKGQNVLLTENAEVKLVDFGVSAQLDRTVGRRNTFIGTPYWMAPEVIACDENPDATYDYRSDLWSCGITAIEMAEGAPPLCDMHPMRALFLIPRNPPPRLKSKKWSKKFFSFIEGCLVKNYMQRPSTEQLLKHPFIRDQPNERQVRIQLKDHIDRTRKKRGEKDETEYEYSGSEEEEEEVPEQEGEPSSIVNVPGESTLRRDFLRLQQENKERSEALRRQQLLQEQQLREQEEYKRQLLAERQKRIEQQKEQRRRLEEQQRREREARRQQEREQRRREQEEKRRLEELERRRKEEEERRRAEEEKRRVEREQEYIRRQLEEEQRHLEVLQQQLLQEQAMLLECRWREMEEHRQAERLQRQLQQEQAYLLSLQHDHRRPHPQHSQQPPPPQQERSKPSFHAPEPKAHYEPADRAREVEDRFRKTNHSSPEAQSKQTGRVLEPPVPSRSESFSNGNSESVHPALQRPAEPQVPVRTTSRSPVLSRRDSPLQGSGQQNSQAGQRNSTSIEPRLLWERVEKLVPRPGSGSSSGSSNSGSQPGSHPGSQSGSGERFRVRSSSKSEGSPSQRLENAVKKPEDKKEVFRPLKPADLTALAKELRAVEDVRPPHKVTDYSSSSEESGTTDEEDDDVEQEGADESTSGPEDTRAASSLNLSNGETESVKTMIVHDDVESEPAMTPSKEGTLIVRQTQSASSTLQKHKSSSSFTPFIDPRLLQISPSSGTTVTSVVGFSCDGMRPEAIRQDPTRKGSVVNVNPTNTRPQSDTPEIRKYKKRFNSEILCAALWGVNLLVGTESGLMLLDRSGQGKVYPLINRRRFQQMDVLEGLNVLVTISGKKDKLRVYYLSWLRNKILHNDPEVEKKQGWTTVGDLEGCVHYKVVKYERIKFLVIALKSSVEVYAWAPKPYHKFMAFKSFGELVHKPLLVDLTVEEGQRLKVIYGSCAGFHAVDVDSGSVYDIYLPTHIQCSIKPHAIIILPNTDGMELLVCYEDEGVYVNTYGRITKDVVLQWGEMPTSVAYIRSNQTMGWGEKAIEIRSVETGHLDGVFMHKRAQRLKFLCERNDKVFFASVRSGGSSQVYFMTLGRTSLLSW

With CNc1nc(Nc2ccc(S(=O)(=O)N3CCC(N4CCOCC4)CC3)cc2OC)nc2[nH]cc(Cl)c12 [Compound 12, 5-chloro-N2-(2-methoxy-4-((4-morpholinopiperidin-1-yl)sulfonyl)phenyl)-N4-methyl-7H-pyrrolo[2,3-d]pyrimidine-2,4-diamine] the remaining binding at 1 µM (panel of 468 kinases [1]) was 93%, the remaining binding at 1 µM (panel of 468 kinases [2]) was 95% and the remaining binding at 1 µM (panel of 468 kinases [3]) was 38%. For the same compound, the remaining binding at 1 µM (panel of 468 kinases [4]) was 100%, the remaining binding at 1 µM (panel of 468 kinases [5]) was 18% and the remaining binding at 1 µM (panel of 468 kinases [6]) was 98%. For the same compound, the remaining binding at 1 µM (panel of 468 kinases [7]) was 100%, the remaining binding at 1 µM (panel of 468 kinases [8]) was 100% and the remaining binding at 1 µM (panel of 468 kinases [9]) was 73%.

CNc1nc(Nc2ccc(P3(=O)CCN(C4CCOCC4)CC3)cc2OC)nc2[nH]cc(Cl)c12 [Compound 77, 4-(4-((5-chloro-4-(methylamino)-7H-pyrrolo[2,3-d]pyrimidin-2-yl)amino)-3-methoxyphenyl)-1-(tetrahydro-2H-pyran-4-yl)-1,4-azaphosphinane 4-oxide] gave a remaining binding at 1 µM (panel of 468 kinases [1]) of 85%, a remaining binding at 1 µM (panel of 468 kinases [2]) of 100% and a remaining binding at 1 µM (panel of 468 kinases [3]) of 35%. The remaining binding at 1 µM (panel of 468 kinases [4]) was 100%, the remaining binding at 1 µM (panel of 468 kinases [5]) was 15% and the remaining binding at 1 µM (panel of 468 kinases [6]) was 86%. It also gave a remaining binding at 1 µM (panel of 468 kinases [7]) of 100%, a remaining binding at 1 µM (panel of 468 kinases [8]) of 95% and a remaining binding at 1 µM (panel of 468 kinases [9]) of 76%.

In the case of CNc1nc(Nc2ccc(C(=O)N3CCC(N4CCOCC4)CC3)c3c2OCO3)nc2[nH]cc(Cl)c12 [Compound 75, (7-((5-chloro-4-(methylamino)-7H-pyrrolo[2,3-d]pyrimidin-2-yl)amino)benzo[d][1,3]dioxol-4-yl)(4-morpholinopiperidin-1-yl)methanone], the remaining binding at 1 µM (panel of 468 kinases [1]) is reported as 45%, the remaining binding at 1 µM (panel of 468 kinases [2]) is reported as 54% and the remaining binding at 1 µM (panel of 468 kinases [3]) is reported as 38%. The remaining binding at 1 µM (panel of 468 kinases [4]) was 100%, the remaining binding at 1 µM (panel of 468 kinases [5]) was 30% and the remaining binding at 1 µM (panel of 468 kinases [6]) was 21%. It also gave a remaining binding at 1 µM (panel of 468 kinases [7]) of 100%, a remaining binding at 1 µM (panel of 468 kinases [8]) of 2.8% and a remaining binding at 1 µM (panel of 468 kinases [9]) of 77%.
